The target of one test is Cyclophilin A (Homo sapiens, UniProt P62937). Description: Cyclophilin inhibition binding, competitive ELISA (Cyclophilin A). The conditions noted are these: human recombinant cyclophilin, read-out: CypA EC50. As for the experimental part: (§1) The cyclophilin inhibition binding activity of compounds disclosed herein was determined using a competitive ELISA adapted from the methods described by Quesniaux et al. (Eur. J Immunol., 1987, 17:1359-1365). Activated ester of succinyl spacers bound to D-Lys^8-cylosporine A (D-Lys^8-Cs) are coupled to bovine serum albumin (BSA) through D-lysyl residue in position 8. BSA is dissolved in 0.1 M borate buffer, pH 9.0 (4 mg in 1.4 ml). A hundredfold molar excess of D-Lys^8-Cs dissolved in dimethyl formamide (0.6 ml) is added dropwise to the BSA under vigorous stirring. The coupling reaction is performed for 2 to 3 hours at room temperature under mild stirring and the conjugate obtained is extensively dialyzed against phosphate-buffered saline (PBS, pH 7.4).
Sequence of Cyclophilin A (P62937 whole entry): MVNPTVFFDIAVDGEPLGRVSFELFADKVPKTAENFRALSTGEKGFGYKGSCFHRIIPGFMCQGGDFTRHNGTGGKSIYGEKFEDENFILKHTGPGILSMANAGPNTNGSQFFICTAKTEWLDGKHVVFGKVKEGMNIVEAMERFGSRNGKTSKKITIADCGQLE
(§2) Microtiter Plates are coated with D-Lys^8-Cs-BSA conjugate (2 μg/ml in PBS for 24 hours at 4° C.). Titration Plates are washed with Tween®/PBS and with PBS alone. To block nonspecific binding, 2% BSA/PBS (pH 7.4) is added to the wells and allowed to incubate for 2 hours at 37° C. A five-fold dilution series of the compound to be tested is made in ethanol in a separate microtiter plate. The starting concentration is 0.1 mg/mL for assays with human recombinant cyclophilin. 198 μL of 0.1 μg/mL cyclophilin solution is added to the microtiter plate immediately followed by 2 μL of diluted cyclosporine A (used as a reference compound) or the compound of the invention. The reaction between coated BSA-Cs conjugate, free cyclosporine A and cyclophilin is allowed to equilibrate overnight at 4° C. Cyclophilin is detected with anti-cyclophilin rabbit serum diluted in PBS containing 1% BSA and incubates overnight at 4° C. Titration Plates are washed as described above. Bound rabbit antibodies are then detected by goat anti-rabbit IgG conjugated to alkaline phosphatase and diluted in 1% BSA-PBS and allowed to incubate for 2 hours at 37° C. Titration Plates are washed as described above. […] The results are expressed as an EC50, which is the concentration of the compound of the invention required to achieve 50% inhibition.

For the next test, the target named is Cyclophilin D (Homo sapiens, UniProt P30405). Put plainly: Cyclophilin inhibition binding, competitive ELISA (Cyclophilin D). The note with it: human recombinant cyclophilin, read-out: CypD EC50. As for the experimental part: as §1, §2
Sequence of Cyclophilin D (P30405 30-207): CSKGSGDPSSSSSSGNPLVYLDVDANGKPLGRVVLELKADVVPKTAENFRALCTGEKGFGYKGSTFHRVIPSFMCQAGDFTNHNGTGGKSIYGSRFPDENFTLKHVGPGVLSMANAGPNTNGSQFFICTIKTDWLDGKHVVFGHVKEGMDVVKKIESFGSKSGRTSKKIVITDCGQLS

`C/C=C/C[C@@H](C)[C@@H](O)[C@H]1C(=O)N[C@@H](CC)C(=O)N(C)[C@H](OCCN(C)C(C)C)C(=O)N(C)[C@@H](CC(C)C)C(=O)N[C@@H](C(C)C)C(=O)N(C)[C@@H](CC(C)C)C(=O)N[C@@H](C)C(=O)N[C@H](C)C(=O)N(C)[C@@H](CC(C)C)C(=O)N(C)[C@@H](CC(C)C)C(=O)N(C)[C@@H](C(C)C)C(=O)N1C` [Entry 2]: the half-maximal effective concentration (EC50) on Cyclophilin A worked out at 202 nM; at Cyclophilin D it was 3550 nM.
Consider `C/C=C/C[C@@H](C)[C@@H](O)[C@H]1C(=O)N[C@@H](CC)C(=O)N(C)[C@H](OCCCN)C(=O)N(C)[C@@H](CC(C)C)C(=O)N[C@@H](C(C)C)C(=O)N(C)[C@@H](CC(C)C)C(=O)N[C@@H](C)C(=O)N[C@H](C)C(=O)N(C)[C@@H](CC(C)C)C(=O)N(C)[C@@H](CC(C)C)C(=O)N(C)[C@@H](C(C)C)C(=O)N1C` [Entry 3], for which, at Cyclophilin A, the EC50 came to 14 nM.
Still for that read-out and setting: next, `C/C=C/C[C@@H](C)[C@@H](O)[C@H]1C(=O)N[C@@H](CC)C(=O)N(C)[C@H](OCCN2CCC2)C(=O)N(C)[C@@H](CC(C)C)C(=O)N[C@@H](C(C)C)C(=O)N(C)[C@@H](CC(C)C)C(=O)N[C@@H](C)C(=O)N[C@H](C)C(=O)N(C)[C@@H](CC(C)C)C(=O)N(C)[C@@H](CC(C)C)C(=O)N(C)[C@@H](C(C)C)C(=O)N1C` [Entry 5]: 66 nM.
On to `C/C=C/C[C@@H](C)[C@@H](O)[C@H]1C(=O)N[C@@H](CC)C(=O)N(C)[C@H](OCCN2CCCCC2)C(=O)N(C)[C@@H](CC(C)C)C(=O)N[C@@H](C(C)C)C(=O)N(C)[C@@H](CC(C)C)C(=O)N[C@@H](C)C(=O)N[C@H](C)C(=O)N(C)[C@@H](CC(C)C)C(=O)N(C)[C@@H](CC(C)C)C(=O)N(C)[C@@H](C(C)C)C(=O)N1C` [Entry 6], for which the values for the 50% effective concentration (EC50) at Cyclophilin A and on Cyclophilin D were 118 nM and 2500 nM, respectively.
In the case of `C/C=C/C[C@@H](C)[C@@H](O)[C@H]1C(=O)N[C@@H](CC)C(=O)N(C)[C@H](OCCN2CCCC2)C(=O)N(C)[C@@H](CC(C)C)C(=O)N[C@@H](C(C)C)C(=O)N(C)[C@@H](CC(C)C)C(=O)N[C@@H](C)C(=O)N[C@H](C)C(=O)N(C)[C@@H](CC(C)C)C(=O)N(C)[C@@H](CC(C)C)C(=O)N(C)[C@@H](C(C)C)C(=O)N1C` [Entry 7], the EC50 at Cyclophilin A was determined as 12 nM; on Cyclophilin D, 1200 nM.
